Where two headings read alike, the source gives them in different places.
How the values were obtained:
[1] = test system: Enterobacter gergoviae ATCC 33028; assay: Liquid broth assay (MIC and checkerboard), Enterobacter gergoviae; format: cell-based; settings: for MIC: Pluralibacter gergoviae, read-out: minimal inhibitory concentration (MIC); for concentration needed in combination to achieve the inhibitory effect: gramine with syringic acid, concentration of the named component in the mixture
From the text: (§1) Naturally derived antimicrobial systems were made, as shown below by combining the indole alkaloid and phenolic acid. Two pools were set up and each pool contained 1 organism. The strains involved were Enterobacter gergoviae ATCC 33028 of the family Pluralibacter gergoviae, a Gram-negative and Aspergillus brasiliensis ATCC 16404. FIC test range was 16 times greater than the projected MIC for each sample.
(§2) The differing behaviors of inhibitory antimicrobials in isolation and mixtures have been widely explored using the concept of the Fractional Concentration and Fractional Inhibitory Concentration (FIC). See for instance JRW Lambert and R Lambert, J. Appl. Microbiol 95, 734 (2003); T. Jadavji, CG Prober and R Cheung, Antibacterial Agents and Chemotherapy 26, 91 (1984), and WO 2004/006876. MIC is the minimum inhibitory concentration a component prevents visible growth of a microbe. The FC and FIC parameters can be defined as follows:
(§3) FC (Component A)=Concentration of Component A tested in the mixture/MIC (Component A tested as a single active)
(§4) FIC (component a)=MIC (component a tested in the mixture)/MIC (component a tested as a single active)
(§5) The interactions between antimicrobials can be additive, synergistic or possibly antagonistic depending on whether the efficacy of the combination is equivalent to, greater than or less than that obtained for the same total concentration of the individual components when tested alone. These relationships can be expressed mathematically by summing the fractional MIC values for all the components present in the mixture to give the “fractional inhibitory index”:
(§6) Such that: • ΣFIC greater than 0.5 corresponds to indifferent, additive or antagonistic activity • ΣFIC less than or equal to 0.5 corresponds to synergistic activity
(§7) Liquid broth assays (MIC and checkerboard) were conducted to identify the minimum concentration(s) of individual and binary combinations of natural preservation materials. A modified methodology to ISO 20776-1:2006 was utilized for the screening as follows. Stock solutions of each preservation chemical at 200 ul/cell (or well) each and 100 ul of broth were created in separate 96-well plates. Each of the two-preservation chemical/broth mixes was then combined in a third 96 well plate at varying concentrations and then inoculated with 1-5×10^6 microorganisms and incubated at 30° C. for 24 hours, after which optical densities at OD600 nm were measured.

[2] = test system: Aspergillus brasiliensis ATCC 16404; assay: Liquid broth assay (MIC and checkerboard), Aspergillus brasiliensis; format: cell-based; settings: for MIC: Aspergillus brasiliensis; for concentration needed in combination to achieve the inhibitory effect: gramine with syringic acid, concentration of the named component in the mixture
From the text: as §1, §2, §3, §4, §5, §6, §7

Row | Compound | MIC ([1]; ATCC33028, component by itself, MIC = <25% growth vs positive control, 30° C., 24 hours, OD600) [mg/mL] | concentration needed in combination to achieve the inhibitory effect [1] [mg/mL] | MIC ([2]; ATCC16404, component by itself, MIC = <25% growth vs positive control, 30° C., 24 hours, OD600, read-out: MIC) [mg/mL] | concentration needed in combination to achieve the inhibitory effect [2] | MIC ([1]; ATCC33028, 24 h) [mg/mL] | MIC ([2]; ATCC16404, 24 h) [mg/mL]
1 | CN(C)Cc1c[nH]c2ccccc12 [Gramine, 1-(1H-Indol-3-yl)-N,N-dimethylmethanamine] | 6.25 | 0.098 | 12.5 | 1,563 mg/ml | – | –
2 | COc1cc(C(=O)O)cc(OC)c1O [Syringic Acid, 4-Hydroxy-3,5-dimethoxybenzoic acid] | – | 0.781 | – | 6.25 mg/mL | > 50 | > 50

Source: patent publication US20250049676A1, “ANTIMICROBIAL SYSTEM WITH INDOLE ALKALOID AND PHENOLIC ACID AND COMPOSITIONS COMPRISING THEM” (Conopco, Inc., d/b/a UNILEVER, priority 2021, published 2025)
